Data taken from patent publication US6455575B2, “Phosphonooxymethyl ethers of taxane derivatives” (Bristol-Myers Squibb Company, priority 1992, dated 2002).

Key:
[1] = test system: M109 lung carcinoma; assay: Mice M109 model, intraperitoneal implant; assay type: in vivo; conditions: ip M109, ip injections, d. 5 + 9, median survival
Description: Balb/c x DBA/2 F1 hybrid mice were implanted intraperitoneally, as described by William Rose in Evaluation of Madison 109 Lung Carcinoma as a Model for Screening Antitumor Drugs, Cancer Treatment Reports, 65, No. 3-4 (1981), with 0.5 mL of a 2% (w/v) brei of M109 lung carcinoma.
Mice were treated with compound under study by receiving intraperitoneal injections of various doses on either days 1, 5 and 9 post-tumor implant or days 5 and 8 post-implant. Mice were followed daily for survival until approximately 75 -90 days post-tumor implant. One group of mice per experiment remained untreated and served as the control group. Median survival times of compound-treated (T) mice were compared to the median survial time of the control (C) mice. The ratio of the two values for each compound-treated group of mice was multiplied by 100 and expressed as a percentage (i.e. % T/C) in Table III for representative compounds of formula (B′).

[2] = test system: HCT-116 human colon carcinoma cells; assay: In vitro cytotoxicity, XTT assay; assay type: cell-based; conditions: 72 h incubation, Examples 1 and 4 as free acid, example 3 as sodium salt
[3] = test system: HCT-116/VM46 human colon carcinoma cells; assay: In vitro cytotoxicity, XTT assay, multi-drug resistant line; assay type: cell-based; conditions: 72 h incubation, teniposide-selected, paclitaxel-resistant cells, Examples 1 and 4 as free acid, example 3 as sodium salt
[4] = test system: HCT-116 human colon carcinoma; assay: HCT-116 human tumor xenograft model; assay type: in vivo; conditions: for cures (tumor-free on Day 80 post tumor implant): athymic mice, every other day x5
[5] = test system: M109 lung carcinoma; assay: In vivo antitumor activity, subcutaneous M109 model; design: species or system mice; conditions: for T-C / max. % T/C: once daily x5 from Day 4
[6] = test system: A2780/cDDP human ovarian carcinoma resistant to cisplatin; assay: A2780/cDDP human tumor xenograft model; assay type: in vivo; conditions: athymic mice, every other day x5
[7] = another M109 experiment, iv, 48 or 36 mg/kg/inj.
[8] = one M109 experiment, iv, 36 or 18 mg/kg/inj.
[9] = sc M109, i.v. once daily days 5-9, opt. dose 18 mg/kg/inj
[10] = iv, 36 mg/kg/inj, Example 3 as triethanolamine salt
[11] = another M109 experiment, triethanolamine salt, iv, 48 mg/kg/inj.
[12] = another M109 experiment, triethanolamine salt, orally, 200 mg/kg/adm.
[13] = one M109 experiment, triethanolamine salt, iv in water, 36 mg/kg/inj.
[14] = one M109 experiment, triethanolamine salt, orally, 160 mg/kg/adm.

`CSCO[C@H]1C[C@H]2OC[C@@]2(OC(C)=O)[C@H]2[C@H](OC(=O)c3ccccc3)[C@]3(O)C[C@H](OC(=O)[C@H](O)[C@@H](NC(=O)OC(C)(C)C)c4ccccc4)C(C)=C([C@@H](OC(C)=O)C(=O)[C@]12C)C3(C)C` [14 (b), 3′-N-debenzoyl-3′-N-(t-butoxycarbonyl)-7-O-methylthiomethylpaclitaxel] was tested, and the “T/C (mg/kg/inj.; schedule in days)” value ([1]; 12 mg/kg/inj.) was 143 (12; d. 5 + 9) %.
In the case of `CC(=O)O[C@@]12CO[C@@H]1C[C@H](O)[C@@]1(C)C(=O)[C@H](O)C3=C(C)[C@@H](OC(=O)[C@H](O)[C@@H](NC(=O)OC(C)(C)C)c4ccccc4)C[C@@](O)([C@@H](OC(=O)c4ccccc4)[C@H]21)C3(C)C` [Texotere ®, reference compound], the IC50 [2] is reported as 0.004 µM and the IC50 [3] is reported as 0.213 µM.
`CC(=O)O[C@H]1C(=O)[C@@]2(C)[C@H]([C@H](OC(=O)c3ccccc3)[C@]3(O)C[C@H](OC(=O)[C@H](O)[C@@H](NC(=O)c4ccccc4)c4ccccc4)C(C)=C1C3(C)C)[C@]1(OC(C)=O)CO[C@@H]1C[C@@H]2O` [paclitaxel, reference compound] was tested, and the “cures (tumor-free on Day 80 post tumor implant)” value ([4]; iv, 24 mg/kg/inj., of 7 treated mice) was 6, the “cures (tumor-free on Day 80 post tumor implant)” value ([4]; iv, 36 mg/kg/inj., of 8 treated mice) was 6 and the “activity in sc M109 model” value ([5]; another M109 experiment, dissolved in cremophore/ethanol/saline, 60/mg/kg/inj.) was “did not show activity”. The T-C [5, 7] was 14 days, the “max. % T/C” value [5, 7] was 167% and the “activity in sc M109 model” value ([5]; one M109 experiment, 160 mg/kg/adm. (highest tested), suspended in water and Tween 80) was “did not show activity”. The T-C [5, 8] was 13 days, the “max. % T/C” value [5, 8] was 132% and the “Maximum Effect T-C” value ([5]; sc M109, i.v. once daily days 4-8, opt. dose 24 mg/kg/inj (lower dose gave maximum delay in tumor growth)) was 14 days. The “Maximum Effect % T/C” value ([5]; sc M109, i.v. once daily days 4-8, opt. dose 48 mg/kg/inj (higher dose gave maximum increase in lifespan)) was 134%, the “Maximum Effect % T/C” value [5, 9] was 151% and the “Maximum Effect T-C” value [5, 9] was 15 days. For the same compound, the “max. T-C” value [6, 10] was 26.3 days, the IC50 [2] was 0.004 µM and the IC50 [3] was 0.44 µM.
In the case of “7-O-phosphonooxymethylpaclitaxel [Example 1]”, the “oral activity in the HCT-116 model” value ([4]; triethanolamine salt, oral) is reported as “oral activity”, the “Maximum Effect T-C” value ([5]; sc M109, CDF1 mice, sodium salt, i.v. once daily days 4-8, opt. dose 45 mg/kg/inj, delay to 1 gm tumor) is reported as 14.0 days and the “Maximum Effect % T/C” value ([5]; sc M109, CDF1 mice, sodium salt, i.v. once daily days 4-8 post-tumor implant, opt. dose 45 mg/kg/inj, median survival) is reported as 131%. For the same compound, the “oral activity in the M109 model” value ([5]; triethanolamine salt, oral) was “oral activity”, the IC50 [2] was 0.0158 µM and the IC50 [3] was 1.24 µM.
`CCOC(=O)O[C@@H](C(=O)O[C@H]1C[C@@]2(O)[C@@H](OC(=O)c3ccccc3)[C@@H]3[C@]4(OC(C)=O)CO[C@@H]4C[C@H](OCOP(=O)(O)O)[C@@]3(C)C(=O)[C@H](OC(C)=O)C(=C1C)C2(C)C)[C@@H](NC(=O)c1ccccc1)c1ccccc1` [Example 3, 2′-O-(ethoxycarbonyl)-7-O-phosphonooxymethylpaclitaxel] was tested, and the “cures (tumor-free on Day 80 post tumor implant)” value ([4]; oral, 160 mg/kg/adm., triethanolamine salt, of 8 treated mice) was 6, the “cures (tumor-free on Day 80 post tumor implant)” value ([4]; oral, 240 mg/kg/adm., triethanolamine salt, of 8 treated mice) was 7 and the T-C [5, 11] was 17 days. For the same compound, the “max. % T/C” value [5, 11] was 170%, the T-C [5, 12] was 17 days and the “max. % T/C” value [5, 12] was 172%. For the same compound, the T-C [5, 13] was 19 days, the “max. % T/C” value [5, 13] was 155% and the T-C [5, 14] was 22.8 days. For the same compound, the “max. % T/C” value [5, 14] was 158%, the “Maximum Effect T-C” value ([5]; sc M109, sodium salt, i.v. once daily days 5-9, opt. dose 24 mg/kg/inj) was 18.8 days and the “Maximum Effect % T/C” value ([5]; sc M109, sodium salt, i.v. once daily days 5-9 post-tumor implant, opt. dose 24 mg/kg/inj) was 160%. For the same compound, the “max. T-C” value [6, 10] was 29.8 days, the “max. T-C” value ([6]; orally, 160 mg/kg/adm., triethanolamine salt) was 20 days and the IC50 [2] was 0.312 µM. It also gave an IC50 [3] of 6.25 µM.
`CC(=O)O[C@H]1C(=O)[C@@]2(C)[C@H]([C@H](OC(=O)c3ccccc3)[C@]3(O)C[C@H](OC(=O)[C@H](OCOP(=O)(O)O)[C@@H](NC(=O)c4ccccc4)c4ccccc4)C(C)=C1C3(C)C)[C@]1(OC(C)=O)CO[C@@H]1C[C@@H]2O` [Example 4, 2′-O-(Phosphonooxymethyl)paclitaxel] was tested, and the IC50 [2] was 0.0457 µM and the IC50 [3] was greater than 6.3 µM.
`CSCO[C@H]1C[C@H]2OC[C@@]2(OC(C)=O)[C@H]2[C@H](OC(=O)c3ccccc3)[C@]3(O)C[C@H](OC(=O)[C@H](O)[C@@H](NC(=O)c4ccccc4)c4ccccc4)C(C)=C([C@@H](OC(C)=O)C(=O)[C@]12C)C3(C)C` [Example 1 (a), 7-O-methylthiomethylpaclitaxel] gave an IC50 [2] of 0.003 µM and an IC50 [3] of 0.025 µM.
In the case of `CCOC(=O)O[C@@H](C(=O)O[C@H]1C[C@@]2(O)[C@@H](OC(=O)c3ccccc3)[C@@H]3[C@]4(OC(C)=O)CO[C@@H]4C[C@H](OCSC)[C@@]3(C)C(=O)[C@H](OC(C)=O)C(=C1C)C2(C)C)[C@@H](NC(=O)OC(C)(C)C)c1ccccc1` [Example 15, 3′-N-debenzoyl-3′-N-(t-butoxycarbonyl)-2′-O-ethyloxycarbonyl-7-O-methylthiomethylpaclitaxel], the “T/C (mg/kg/inj.; schedule in days)” value ([1]; 8 mg/kg/inj.) is reported as 192 (8; d. 5 + 9) %.
